Source: patent publication US20220411794A1, “RNA OLIGONUCLEOTIDES FOR PREVENTING AGGREGATION OF PROTEINS” (Universitaet Wien, priority 2019, published 2022)

Biological target: T1, human insulin (Homo sapiens, UniProt P01308)
T1 construct: purchased SIGMA
Test: Human insulin aggregation assay (relative solubility)
Assay type: physicochemical
Details: 86 μM insulin : 20 μM RNA (molar ratio […]:1)
Experimental: The insulin aggregation assay was performed in 150 mM Tris-HCl pH 7.5. Aggregation was monitored at 360 nm (excitation: 1 nm bandwidth, emission: 10 nm bandwidth) in macro-cuvettes (1500 μl) with a pathlength of 10 mm. 86 μM human insulin (SIGMA) with or without 20 μM RNA were pre-incubated at 30° C. and the aggregation reaction was started by the addition of dithiothreitol (DTT) to a final concentration of 15 mM.

T1 sequence (P01308 25-54 limits assumed): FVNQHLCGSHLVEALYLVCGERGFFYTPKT

RNA1: GUGGAGGCGCUGUACCUGGUGUGCGGAGAGCGCGGC; fragment of native own mRNA coding for insulin β-chain region VEALYLVCGERG (RNA, backbone not given here)
increase in the relative solubility of insulin: 21%
